Source: patent publication US4631287A, “Aryl and heteroaryl ethers as agents for the treatment of hypersensitive ailments” (USV Pharmaceutical Corp., priority 1985, dated 1986)

Tests used:
[1] = system: lipoxygenase pathway (5-HETE production in rat neutrophils); test: Protocol for Detecting Inhibitors of the Lipoxygenase Pathway (5-HETE production in rat neutrophils); format: cell-based; settings: Neutrophil, 0.05 h, [14C]-arachidonic acid and Calcium Ionophore A23187, 3 minutes at 30° C., 5-HETE produced, read-out: I50
Protocol: The following protocol describes an assay to detect inhibitors of the lipoxygenase pathway. Such inhibitors are believed to be capable of modulating the biosynthesis of the leukotrienes, a property believed to be useful in treating asthma and inflammatory disease states.
Protocol for Detecting Inhibitors of the Lipoxygenase Pathway
A suspension of rat neutrophils in buffer is incubated for 3 minutes at 30° C. with [^14 C]-arachidonic acid (AA) and Calcium Ionophore A23187. Citric acid (2M) is used to quench the reaction. Following the addition of a trace amount of (^3 H)-5-HETE together with an excess of unlabeled 5-HETE to each tube, the mixture is extracted with chloroform/methanol. The organic layer is washed with dilute acid and an aliquot is transferred to glass tubes and dried. […] After adjusting for the extraction efficiency, the amount (pmole) of [^14 C]-5-HETE in each of the tubes is quantitated by substracting the net pmoles of 5-HETE in the tubes containing buffer alone (blank) from the pmoles of 5-HETE in the tubes containing […]. The ability of the test compounds to modulate the activity of this enzyme is determined by a decrease or increase in the net amount of 5-HETE produced.

[2] = system: leukotriene C4-induced contraction of guinea pig peripheral lung strips; test: Protocol for SRS-A Antagonists: leukotriene C4-induced contraction of guinea pig peripheral lung strips; settings: 0.2 nM leukotriene C4, read-out: concentration required for 50% inhibition of 0.2 nM leukotriene C4-induced contraction
Protocol: Leukotrienes, the products of the 5-lipoxygenase pathway of arachidonic acid metabolism, are potent contractile agents with a variety of smooth muscle preparations. […] The following protocol describes an in vitro assay used to test compounds which specifically antagonize the actions of leukotrienes.
Protocol for SRS-A (slow reacting substance of anaphylaxis) Antagonists
Peripheral strips of guinea pig lungs are prepared and hung in tissue baths (Metro #ME-5505, 10 ml) according to the published procedure--(Proc. Nat'l Acad. Sci., U.S.A. Volume 77, pp. 4354-4358, 1980). The strips are thoroughly rinsed in Assay Buffer and then connected with surgical silk thread to support rods from the tissue baths. The rods are adjusted in the baths and the strips connected to the pressure transducers (Grass FT 103 or Gould UC-3). The tissue baths are aerated with 95% oxygen--5% carbon dioxide and maintained at 37° C. The assay buffer has been made as follows: for each liter of buffer the following are added to approximately 800 ml of water distilled in glass-6.87 g NaCl, 0.4 g KCl, 2.1 g NaHCO3, 0.14 g NaH2 PO4.H2 O, 0.21 g MgSO4.7H2 O, and 2.0 g D-glucose. […]
Responses of each tissue to a pre-determined concentration of leukotriene are then obtained. […] The intrinsic activity of the compounds, and their effect on leukotriene-induced contractions are then recorded.

[3] = system: SRS-A component of anaphylactic bronchoconstriction; test: Bronchial Anaphylaxis in Guinea Pigs with Enhanced Leukotrienes (BAGEL); format: in vivo, guinea pig; settings: 100 mg/kg, i.d., guinea pigs immunized with ovalbumin
Protocol: Protocol for in vivo Testing of Modulators of SRS-A (slow reacting substances of anaphylaxis)
This test, known as the Bronchial Anaphylaxis in Guinea Pigs with Enhanced Leukotrienes (BAGEL), is based on the procedure published in Agents and Actions, Vol. II, pp. 396-401, 1981, and is performed with guinea pigs actively immunized (14 days) with ovalbumin (2.7 mg/kg, i.p.) and B. pertussis (5×10^9 organisms) as an adjuvant. Prior to challenge with antigen (ovalbumin), the animals are anesthetized and prepared for monitoring pulmonary dynamics by whole body plethysmography. They are treated with an H1 antihistamine (methapyrilene, 2 mg/kg, i.v.) and cyclooxygenase inhibitor (indomethacin; 20 mg/kg, i.p.) in order to enhance the SRS-A component of anaphylactic bronchoconstriction. Bronchoconstriction is quantified as the maximum increase in airway resistance following antigen challenge. The drug is administered either i.p. 10 minutes before challenge, or i.d. 15 minutes before challenge.

Row | Structure (SMILES) | IC50 [1] | IC50 [2] | activity in BAGEL test (bronchoconstriction following antigen challenge) [3]
1 | COc1ccc(OCc2ccc3ccccc3n2)cc1 [2-(p-methoxyphenoxymethyl) quinoline, 2-(p-Methoxyphenoxymethyl) quinoline] | 700 nM | 300 nM | 
2 | c1ccc(OCc2ccc3ccccc3n2)cc1 [2-Phenoxymethyl quinoline] | 500 nM | 900 nM | highly active
